Literature values, collected in patent US20090298802A1, “Pharmaceutical Compositions” (priority 2005, published 2009).

Columns and labels:
guinea-pig model of COPD = conditions: COPD induced by cigarette smoke exposure
patients with COPD = conditions: 516 patients with COPD, after 26 weeks of dosing, versus placebo recipients

Row | SMILES | neutrophilia (guinea-pig model of COPD) | specific airway resistance (guinea-pig model of COPD) | tolerability profile (patients with COPD)
1 | CCOc1ccc(-c2nc(-c3cccc(C(=O)O)n3)cs2)cc1OCC [Tetomilast] | improvements | improvements | 
2 | O=C(Nc1c(Cl)cncc1Cl)c1ccc(OC(F)F)c(OCC2CC2)c1 [Roflumilast] |  |  | equivalent to that seen in placebo recipients
